Experimental findings from patent publication US8927580B2, “Thiosemicarbazone compounds and use in the treatment of cancer” (Oncochel Therapeutics LLC, priority 2010, dated 2015) are described below.

SMILES strings stand for the structures.

Usually IC50 stands for the concentration that inhibits the measured activity by half. In general, IC90 refers to the point of the concentration-response curve where the effect stands at 90%. Lower therefore signals greater potency.

Data set [1] has as its system PANC 1 pancreatic cancer cells. The data set is described as follows: MTT proliferation assay, PANC 1. In kind it is cell-based. The settings on record: Homo sapiens; PANC 1, MTT, 72 h. The procedure:
(§1) The pancreatic cancer cell lines, including MIAPaCa-2, PANC 1, CAPAN-2 and CFPAC-1 were a generous gift from Prof. Andrew Biankin (Garvan Institute, NSW, Australia). The MIAPaCa-2, PANC 1 and CFPAC-1 cell lines were grown in DMEM medium (Invitrogen) and CAPAN-2 cells were grown in McCoy's medium (Invitrogen). All media was supplemented with 10% (v/v) fetal calf serum (Invitrogen), 1% (v/v) non-essential amino acids (Invitrogen), 1% (v/v) sodium pyruvate (Invitrogen), 2 mM L-glutamine (Invitrogen), 100 μg/mL of streptomycin (Invitrogen), 100 U/ml penicillin (Invitrogen), and 0.28 μg/mL of fungizone.
(§2) To further examine the spectrum of anti-proliferative activity, Dp4cycH4mT was tested against pancreatic cancer in vitro, performing MTT proliferation assays with PANC 1, MIAPaCa-2, CFPAC-1 and CAPAN-2 pancreatic cancer cells. As a comparison, currently used treatments for pancreatic cancer including gemcitabine and 5-fluorouracil were also tested. The iron chelator, DFO, was included as a positive control.
(§3) Table 2A. Anti-proliferative activity of Dp4cycH4mT against pancreatic cancer cell lines. Growth and antiproliferative activity IC50 (μM) values of Dp4cycH4mT in a variety of pancreatic cell lines and in comparison to DFO and the clinically used drugs gemcitabine and 5-fluorouracil as determined by the MTT assay. Cells were seeded and allowed to attach to wells for 24 h and then incubated for 72 h at 37° C. with control medium or the chelators. Results are mean±SD (3 experiments).
(§4) Table 2B. Anti-proliferative activity of Dp4cycH4mT against pancreatic cancer cell lines. IC90 (μM) values of Dp4cycH4mT in a variety of pancreatic cell lines and in comparison to DFO and the clinically used drugs gemcitabine and 5-fluorouracil as determined by the MTT assay. Cells were seeded and allowed to attach to wells for 24 h and then incubated for 72 h at 37° C. with control medium or the chelators. Results are mean±SD (3 experiments).
(In general: Tetrazolium dyes change colour on reduction, which living cells bring about.)

The subject of data set [2] is PANC 1 human pancreatic carcinoma. The data set is described as follows: PANC 1 xenograft in nude mice: tumour growth. In kind it is in vivo, nude mice (BALBc nu/nu). The settings on record: Dp4cycH4mT 5 mg/kg/day i.v. The procedure:
FIG. 5). […] (5 mg/kg) or vehicle control.

Another data set relates to cyclin D1. The data set is described as follows: Western blot analysis, cyclin D1 levels. The format is cell-based. The settings on record: MIAPaCa-2 cells. The procedure: (§5) Western analysis was performed via established protocols (Gao, J. and D. R. Richardson (2001). Blood 98: 842-50). The primary antibodies used were against NDRG1 (Abcam; UK), p21, cyclin D1, transferrin receptor 1 (TfR1; Santa Cruz, CA, USA) and β-actin (Sigma-Aldrich), with secondary HRP-conjugated goat and mouse antibodies (Sigma-Aldrich).
(§6) Dp4cycH4mT was examined to determine whether it could up-regulate NDRG-1 expression. To further evaluate the effect of the chelator Dp4cycH4mT on other key molecules involved in cell cycle progression, the expression of the cyclin-dependent kinase inhibitor, p21, as well as cyclin D1 in MIAPaCa-2 cells was also examined.
For orientation: A western blot detects proteins with antibodies after separation by electrophoresis.

A further data set concerns p21. In words: Western blot analysis, p21 expression. In kind it is cell-based. The settings on record: MIAPaCa-2 cells. The procedure: as §5, §6
Data set [3] concerns MIAPaCa-2 pancreatic cancer cells. In words: MTT proliferation assay, MIAPaCa-2. In kind it is cell-based. The settings on record: Homo sapiens, MIA PaCa-2; MIAPaCa-2, MTT, 72 h. The procedure: as §1, §2, §3, §4
The subject of data set [4] is SK-N-MC neuroepithelioma cells. The data set is described as follows: Iron uptake assay (59Fe uptake from 59Fe-transferrin). In kind it is cell-based, human. The settings on record: 25 μM chelator, 3 h at 37° C., 59Fe-Tf. The procedure: Cells were cultured in the same way as for the iron efflux experiments. […] At the end of the incubation the culture dishes were placed on ice, the media aspirated, and the cells washed 4 times with ice cold PBS. Protease (1 mL; 1 mg/mL; Sigma-Aldrich, NSW, Australia) solution was added to each plate and allowed to incubate on ice for 30 min. This facilitated the removal of membrane bound ^59Fe-Tf. Cells were then scraped from the plastic surface using a Teflon spatula and collected in Eppendorf tubes. These were centrifuged at 10000 rpm and 4° C. for 3 min. The supernatant was then transferred into counting tubes and the cell pellet resuspended in PBS before also being transferred into another set of counting tubes. Radioactivity was measured using a Wallac Wizard 3″ Gamma Counter (PerkinElmer, MA, USA). Results are expressed as average ^59Fe content of the cellular fraction as a percentage of the control value.

The test system of a further data set is methemoglobin (metHb). The data set is described as follows: metHb formation in vivo. The arrangement: species or system C57BL6 mice. The settings on record: 6 mg/kg intravenously, blood taken after 30 min. The procedure: FIG. 13. Effect of thiosemicarbazone chelators on metHb-formation in vivo. MetHb after Dp44mT, Triapine® or Dp4cycH4mT treatment in vivo at a dose of 6 mg/kg administered intravenously via the tail vein. Mice in the control group were treated with vehicle alone. At 30 minutes post-administration, whole blood was collected for determination of metHb levels.
The levels of metHb and metMb in RBC lysates were determined using a Shimadzu UV-Vis spectrophotometer (UV-1800; Shimadzu Corporation, Kyoto, Japan) at 577 nm and 630 nm for metHb and metMb in accordance with published methods (Winterbourn CC and Carrell R W (1977). Biochem J 165: 141-148).
C57BL6 mice (7-8 weeks-old) were used under a protocol approved by the university of Sydney Animal Ethics Committee. Dp44mT, Triapine® or Dp4cycH4mT (all at 6 mg/kg) were dissolved in 30% propylene glycol/saline and administered iv via the tail vein. Subsequently, 30 min after administration, mice were anesthetized with isoflurane and blood samples obtained by cardiac puncture. Blood samples were lysed with 2.5 volumes of ultrapure water for metHb estimation. Mice were sacrificed with isoflurane, the heart exhaustively perfused with HBSS and Mb isolated.

For data set [5], the system named is pancreatic cancer cell lines. In words: MTT proliferation assays, pancreatic cancer cell line panel (comparison of IC50). The format is cell-based. The settings on record: in 2 out of the 4 cell types. The procedure: as §1, §2
Table 2A. Anti-proliferative activity of Dp4cycH4mT against pancreatic cancer cell lines. […]. Cells were seeded and allowed to attach to wells for 24 h and then incubated for 72 h at 37° C. with control medium or the chelators. Results are mean±SD (3 experiments).

For the next data set, the system named is NDRG1. The data set is described as follows: Western blot analysis, NDRG1 expression. In kind it is cell-based. The settings on record: MIAPaCa-2 cells. The procedure:
as §5, §6

For data set [6], the system named is CFPAC-1 pancreatic cancer cells. The data set is described as follows: MTT proliferation assay, CFPAC-1. The settings on record: Homo sapiens; CFPAC-1, MTT, 72 h. The format is cell-based. The procedure:
as §1, §2, §3, §4

Data set [7] relates to CAPAN-2 pancreatic cancer cells. In words: MTT proliferation assay, CAPAN-2. The settings on record: Homo sapiens; CAPAN-2, MTT, 72 h. In kind it is cell-based. The procedure:
as §1, §2, §3, §4

Consider `CN(C(=S)NN=C(c1ccccn1)c1ccccn1)C1CCCCC1` [Dp4cycH4mT, di-2-pyridylketone 4-cyclohexyl-4-methyl-3-thiosemicarbazone], for which the half-maximal inhibitory concentration (IC50) in data set [1] came to 50 ± 2 nM; in [3], 9 ± 0.3 nM; in [6] it was 400 ± 200 nM; in data set [7], 40 ± 8 nM. Further, the IC90 in [1] was > 5000 nM; in data set [3], > 5000 nM; in data set [6], 5400 ± 1100 nM; in [7], > 5000 nM. In addition, in data set [2], the Tumour weight came to 0.04 ± 0.01 g. Besides, in the data set on cyclin D1, the “cyclin D1 levels” value is “significantly (p<0.05) reduced”. Moreover, in the data set on p21, the p21 expression entry is listed as “markedly (p<0.05) increasing”. In addition, the “cellular 59Fe uptake (% of the control)” value in data set [4] came out at 21%. Moreover, in the data set with methemoglobin (metHb), the “metHb (% of total Hb)” value is “comparable to the control”. The “IC50 fold lower compared to 5-fluorouracil” value in data set [5] is ≥ 1000 fold. In addition, the “IC50 fold lower compared to gemcitabine” value in [5] is “at least 100 fold”. Moreover, the NDRG1 expression entry with NDRG1 is recorded as “significantly (p<0.01) up-regulated”.
